Test results reported in patent US10618918B2, “Substituted boronic acids as antimicrobials” (priority 2015, dated 2020).
Like-named read-outs stand apart in the source and are kept apart here.

Columns and labels:
[1] = system: KP1086 OXA-48; assay: Biapenem potentiation (MPC@1), strain KP1086 OXA-48; assay type: cell-based; settings: minimum BLI concentration inhibiting growth with biapenem 1 μg/mL; tested up to 40 μg/mL
Method: (§1) Biapenem was present in the test medium at 1 μg/mL. […] Table 3 summarizes the BLI potency of biapenem potentiation (MPC@1) for two strains overexpressing class A (KPC) and class D (OXA-48) carbapenemases. Biapenem MIC for each strain is also shown.

[2] = system: KP1005 CTX-M-14; assay: Tigemonam potentiation (MPC@4), strain KP1005 CTX-M-14; settings: minimum BLI concentration inhibiting growth with tigemonam 4 μg/mL; tested up to 40 μg/mL
[3] = system: AB1053 OXA-72; assay: Meropenem potentiation (MPC@8), strain AB1053 OXA-72; assay type: cell-based, Acinetobacter baumannii; settings: minimum BLI concentration inhibiting growth with meropenem 8 μg/mL; tested up to 20 μg/mL
[4] = system: ec302 TEM-10; assay: Aztreonam potentiation (MPC@4), strain ec302 TEM-10; settings: minimum BLI concentration inhibiting growth with aztreonam 4 μg/mL; tested up to 40 μg/mL
[5] = system: EC1010 CMY-6; assay: Aztreonam potentiation (MPC@4), strain EC1010 CMY-6; settings: minimum BLI concentration inhibiting growth with aztreonam 4 μg/mL; tested up to 40 μg/mL
[6] = system: AB1054 OXA-23; assay: Meropenem potentiation (MPC@8), strain AB1054 OXA-23; assay type: cell-based, Acinetobacter baumannii; settings: minimum BLI concentration inhibiting growth with meropenem 8 μg/mL; tested up to 20 μg/mL
[7] = system: KP1009 CTX-M-15; assay: Aztreonam potentiation (MPC@4), strain KP1009 CTX-M-15; settings: minimum BLI concentration inhibiting growth with aztreonam 4 μg/mL; tested up to 40 μg/mL
[8] = system: ECL1002; assay: Aztreonam potentiation (MPC@4), strain ECL1002; settings: minimum BLI concentration inhibiting growth with aztreonam 4 μg/mL; tested up to 40 μg/mL
[9] = system: KP1004 KPC-2; assay: Biapenem potentiation (MPC@1), strain KP1004 KPC-2; assay type: cell-based; settings: minimum BLI concentration inhibiting growth with biapenem 1 μg/mL; tested up to 40 μg/mL
Method: as §1

[10] = system: KP1004 KPC-2; assay: Aztreonam potentiation (MPC@4), strain KP1004 KPC-2; settings: minimum BLI concentration inhibiting growth with aztreonam 4 μg/mL; tested up to 40 μg/mL
[11] = molecular target: purified class A, C and D enzymes (β-lactamases) (Enterobacter cloacae, UniProt P05364); assay: biochemical; assay type: biochemical
Sequence of purified class A, C and D enzymes (β-lactamases) (Enterobacter cloacae, UniProt P05364) (P05364 21-381): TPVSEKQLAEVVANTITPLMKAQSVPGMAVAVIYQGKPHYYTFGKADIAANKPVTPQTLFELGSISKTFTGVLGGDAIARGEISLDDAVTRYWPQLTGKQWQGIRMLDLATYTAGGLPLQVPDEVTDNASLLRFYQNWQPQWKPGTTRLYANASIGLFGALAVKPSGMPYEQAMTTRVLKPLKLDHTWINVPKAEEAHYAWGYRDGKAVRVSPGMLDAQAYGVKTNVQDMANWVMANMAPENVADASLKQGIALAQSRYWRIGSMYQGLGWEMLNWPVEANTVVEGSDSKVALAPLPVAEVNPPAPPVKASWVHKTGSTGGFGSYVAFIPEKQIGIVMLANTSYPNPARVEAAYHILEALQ

[12] = molecular target: purified class A, C and D enzymes (β-lactamases) (Escherichia coli, UniProt Q9L5C7); assay: biochemical; assay type: biochemical; settings: purified CTX-M-14; nitrocefin (NCF) as reporter substrate
Sequence of purified class A, C and D enzymes (β-lactamases) (Escherichia coli, UniProt Q9L5C7) (Q9L5C7 entry or part of it): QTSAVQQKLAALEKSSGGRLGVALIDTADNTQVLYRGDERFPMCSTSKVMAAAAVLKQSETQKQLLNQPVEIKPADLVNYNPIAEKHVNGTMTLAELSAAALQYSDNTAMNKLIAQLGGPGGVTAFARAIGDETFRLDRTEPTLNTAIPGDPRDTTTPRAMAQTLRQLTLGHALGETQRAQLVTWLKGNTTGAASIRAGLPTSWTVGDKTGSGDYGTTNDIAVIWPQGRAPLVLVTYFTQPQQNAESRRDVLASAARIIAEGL

[13] = molecular target: purified class A, C and D enzymes (β-lactamases) (Klebsiella pneumoniae, UniProt Q9F663); assay: biochemical; assay type: biochemical; settings: purified KPC-2; nitrocefin (NCF) as reporter substrate
[14] = molecular target: T1, purified class A, C and D enzymes (β-lactamases) (Acinetobacter baumannii, UniProt Q9L4P2); assay: biochemical; assay type: biochemical; settings: purified OXA-23; nitrocefin (NCF) as reporter substrate
T1 construct: rows headed: Ki (OXA-23, NCF), uM; other: purified OXA-23; nitrocefin (NCF) as reporter substrate
T1 sequence (Q9L4P2 whole entry): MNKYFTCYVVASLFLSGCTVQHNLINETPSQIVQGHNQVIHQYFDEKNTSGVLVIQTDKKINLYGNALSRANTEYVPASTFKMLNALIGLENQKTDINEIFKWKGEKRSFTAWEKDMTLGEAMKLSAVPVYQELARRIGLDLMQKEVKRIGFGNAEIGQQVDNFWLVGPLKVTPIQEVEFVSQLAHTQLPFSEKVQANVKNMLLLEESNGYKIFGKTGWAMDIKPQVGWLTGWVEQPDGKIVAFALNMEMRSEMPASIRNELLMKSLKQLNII

[15] = molecular target: purified class A, C and D enzymes (β-lactamases) (Klebsiella pneumoniae, UniProt Q6XEC0); assay: biochemical; assay type: biochemical; settings: purified OXA-48; nitrocefin (NCF) as reporter substrate
[16] = molecular target: T2, purified class A, C and D enzymes (β-lactamases) (Pseudomonas aeruginosa, UniProt P24735); assay: biochemical; assay type: biochemical
T2 construct: rows headed: Ki (Pa-AmpC, NCF), uM; other: purified Pa-AmpC; nitrocefin (NCF) as reporter substrate
T2 sequence (P24735 whole entry): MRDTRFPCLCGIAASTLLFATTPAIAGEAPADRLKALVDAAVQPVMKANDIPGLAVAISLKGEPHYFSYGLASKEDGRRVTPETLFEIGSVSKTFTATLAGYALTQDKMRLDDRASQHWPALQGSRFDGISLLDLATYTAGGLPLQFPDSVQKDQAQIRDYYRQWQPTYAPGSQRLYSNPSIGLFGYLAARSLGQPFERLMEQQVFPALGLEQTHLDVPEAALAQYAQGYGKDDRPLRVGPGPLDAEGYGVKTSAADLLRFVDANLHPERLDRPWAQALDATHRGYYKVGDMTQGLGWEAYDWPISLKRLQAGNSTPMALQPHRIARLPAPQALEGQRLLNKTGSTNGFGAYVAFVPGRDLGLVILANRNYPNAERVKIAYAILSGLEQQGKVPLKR

[17] = system: ec308 SHV-5; assay: Aztreonam potentiation (MPC@4), strain ec308 SHV-5; settings: minimum BLI concentration inhibiting growth with aztreonam 4 μg/mL; tested up to 40 μg/mL
[18] = system: KP1010 SHV-12; assay: Aztreonam potentiation (MPC@4), strain KP1010 SHV-12; settings: minimum BLI concentration inhibiting growth with aztreonam 4 μg/mL; tested up to 40 μg/mL

Structure (SMILES) | BPM MPC1 OXA-48 KP1086 [1] | TIG MPC4 CTX-M-14 KP1005 [2] | MPM MPC8 AB1053 OXA-72 [3] | AZT MPC4 TEM-10 ec302 [4] | AZT MPC4 CMY-6 EC1010 [5] | MPM MPC8 AB1054 OXA-23 [6] | AZT MPC4 CTX-M-15 KP1009 [7] | AZT MPC4 ECL1002 [8] | BPM MPC1 KP1004 KPC-2 [9] | AZT MPC4 KPC-2 KP1004 [10] | Ki (P99, NCF), uM [11] | Ki (CTX-M-14, NCF), uM [12] | Ki (KPC-2, NCF), uM [13] | Ki [14] [nM] | Ki (OXA-48, NCF), uM [15] | Ki [16] [nM] | AZT MPC4 SHV-5 ec308 [17] | AZT MPC4 SHV-12 KP1010 [18] | Ki (P99, NCF), uM ([11]; purified P99, nitrocefin (NCF) as reporter substrate) | Ki ([16]; purified Pa-AmpC, nitrocefin (NCF) as reporter substrate, read-out: Ki (Pa-AmpC, NCF)) [nM]
NS(=O)(=O)Nc1ccc2c(c1C(=O)[O-])O[B-](O)(O)CC2.[Na+].[Na+] [Compound 52, Disodium; 4,4-dihydroxy-8-(sulfamoylamino)-5-oxa-4-boranuidabicyclo[4.4.0]deca-1(6),7,9-triene-7-carboxylate] | X (X = MPC@1 ≤ 5 μg/mL) | Z (Z = MPC@4 > 20 μg/mL) | Z (Z = MPC@1 > 20 μg/mL) | Y (Y = 5 μg/mL < MPC@4 ≤ 20 μg/mL) | X (X = MPC@4 ≤ 5 μg/mL) | Z (Z = MPC@1 > 20 μg/mL) | Y (Y = 5 μg/mL < MPC@4 ≤ 20 μg/mL) | X (X = MPC@4 ≤ 5 μg/mL) | X (X = MPC@1 ≤ 5 μg/mL) | X (X = MPC@4 ≤ 5 μg/mL) | X (key: X = Ki ≤ 0.1 μM; Y = 0.1 μM < Ki ≤ 1 μM; Z = Ki > 1 μM) | X (X = Ki ≤ 0.1 μM) | X (X = Ki ≤ 0.1 μM) | 100 to 1000 | X (X = Ki ≤ 0.1 μM) | < 100 | Y (Y = 5 μg/mL < MPC@4 ≤ 20 μg/mL) | X (X = MPC@4 ≤ 5 μg/mL) | – | –
O=C([O-])c1ccc2c(c1C(=O)[O-])O[B-](O)(O)CC2.[Na+].[Na+].[Na+] [Compound 53, Trisodium; 4,4-dihydroxy-5-oxa-4-boranuidabicyclo[4.4.0]deca-1(6),7,9-triene-7,8-dicarboxylate] | X (X = MPC@1 ≤ 5 μg/mL) | Z (Z = MPC@4 > 20 μg/mL) | X (X = MPC@1 ≤ 5 μg/mL) | Y (Y = 5 μg/mL < MPC@4 ≤ 20 μg/mL) | X (X = MPC@4 ≤ 5 μg/mL) | X (X = MPC@1 ≤ 5 μg/mL) | Y (Y = 5 μg/mL < MPC@4 ≤ 20 μg/mL) | X (X = MPC@4 ≤ 5 μg/mL) | X (X = MPC@1 ≤ 5 μg/mL) | X (X = MPC@4 ≤ 5 μg/mL) | X (key: X = Ki ≤ 0.1 μM; Y = 0.1 μM < Ki ≤ 1 μM; Z = Ki > 1 μM) | X (X = Ki ≤ 0.1 μM) | X (X = Ki ≤ 0.1 μM) | < 100 | X (X = Ki ≤ 0.1 μM) | < 100 | Y (Y = 5 μg/mL < MPC@4 ≤ 20 μg/mL) | X (X = MPC@4 ≤ 5 μg/mL) | – | –
CON=Cc1ccc2c(c1C(=O)[O-])O[B-](O)(O)CC2.[Na+].[Na+] [Compound 55, Disodium; 4,4-dihydroxy-8-(methoxyiminomethyl)-5-oxa-4-boranuidabicyclo[4.4.0]deca-1(6),7,9-triene-7-carboxylate] | X (X = MPC@1 ≤ 5 μg/mL) | Z (Z = MPC@4 > 20 μg/mL) | Z (Z = MPC@1 > 20 μg/mL) | X (X = MPC@4 ≤ 5 μg/mL) | X (X = MPC@4 ≤ 5 μg/mL) | Z (Z = MPC@1 > 20 μg/mL) | X (X = MPC@4 ≤ 5 μg/mL) | X (X = MPC@4 ≤ 5 μg/mL) | X (X = MPC@1 ≤ 5 μg/mL) | X (X = MPC@4 ≤ 5 μg/mL) | X (key: X = Ki ≤ 0.1 μM; Y = 0.1 μM < Ki ≤ 1 μM; Z = Ki > 1 μM) | X (X = Ki ≤ 0.1 μM) | X (X = Ki ≤ 0.1 μM) | < 100 | X (X = Ki ≤ 0.1 μM) | < 100 | X (X = MPC@4 ≤ 5 μg/mL) | X (X = MPC@4 ≤ 5 μg/mL) | – | –
CCOc1ccc2c(c1C(=O)[O-])O[B-](O)(O)CC2.[Na+].[Na+] [Compound 57, Disodium; 8-ethoxy-4,4-dihydroxy-5-oxa-4-boranuidabicyclo[4.4.0]deca-1(6),7,9-triene-7-carboxylate] | X (X = MPC@1 ≤ 5 μg/mL) | Y (Y = 5 μg/mL < MPC@4 ≤ 20 μg/mL) | X (X = MPC@1 ≤ 5 μg/mL) | X (X = MPC@4 ≤ 5 μg/mL) | X (X = MPC@4 ≤ 5 μg/mL) | X (X = MPC@1 ≤ 5 μg/mL) | X (X = MPC@4 ≤ 5 μg/mL) | X (X = MPC@4 ≤ 5 μg/mL) | X (X = MPC@1 ≤ 5 μg/mL) | X (X = MPC@4 ≤ 5 μg/mL) | X (key: X = Ki ≤ 0.1 μM; Y = 0.1 μM < Ki ≤ 1 μM; Z = Ki > 1 μM) | X (X = Ki ≤ 0.1 μM) | X (X = Ki ≤ 0.1 μM) | < 100 | X (X = Ki ≤ 0.1 μM) | < 100 | X (X = MPC@4 ≤ 5 μg/mL) | X (X = MPC@4 ≤ 5 μg/mL) | – | –
O=C(O)c1c(F)ccc2c1OB(O)COC2 [Compound 58, 8-Fluoro-2-hydroxy-3,5-dihydro-1,4,2-benzodioxaborepine-9-carboxylic acid] | X (X = MPC@1 ≤ 5 μg/mL) | Z (Z = MPC@4 > 20 μg/mL) | Z (Z = MPC@1 > 20 μg/mL) | Z (Z = MPC@4 > 20 μg/mL) | X (X = MPC@4 ≤ 5 μg/mL) | Z (Z = MPC@1 > 20 μg/mL) | Z (Z = MPC@4 > 20 μg/mL) | X (X = MPC@4 ≤ 5 μg/mL) | X (X = MPC@1 ≤ 5 μg/mL) | X (X = MPC@4 ≤ 5 μg/mL) | – | X (X = Ki ≤ 0.1 μM) | X (X = Ki ≤ 0.1 μM) | 100 to 1000 | X (X = Ki ≤ 0.1 μM) | – | Z (Z = MPC@4 > 20 μg/mL) | Y (Y = 5 μg/mL < MPC@4 ≤ 20 μg/mL) | X (X = Ki ≤ 0.1 μM) | < 100
O=C([O-])c1cncc2c1O[B-](O)(O)CC2.[Na+].[Na+] [Compound 59, Disodium; 4,4-dihydroxy-5-oxa-9-aza-4-boranuidabicyclo[4.4.0]deca-1(6),7,9-triene-7-carboxylate] | X (X = MPC@1 ≤ 5 μg/mL) | Z (Z = MPC@4 > 20 μg/mL) | Y (Y = 5 μg/mL < MPC@1 ≤ 20 μg/mL) | X (X = MPC@4 ≤ 5 μg/mL) | Y (Y = 5 μg/mL < MPC@4 ≤ 20 μg/mL) | Z (Z = MPC@1 > 20 μg/mL) | Y (Y = 5 μg/mL < MPC@4 ≤ 20 μg/mL) | Z (Z = MPC@4 > 20 μg/mL) | X (X = MPC@1 ≤ 5 μg/mL) | X (X = MPC@4 ≤ 5 μg/mL) | Z (key: X = Ki ≤ 0.1 μM; Y = 0.1 μM < Ki ≤ 1 μM; Z = Ki > 1 μM) | X (X = Ki ≤ 0.1 μM) | X (X = Ki ≤ 0.1 μM) | > 1000 | X (X = Ki ≤ 0.1 μM) | 100 to 1000 | Y (Y = 5 μg/mL < MPC@4 ≤ 20 μg/mL) | X (X = MPC@4 ≤ 5 μg/mL) | – | –
